{"source": "patent US8182527B2", "about": "“Heparin barrier coating for controlled drug release” (Cordis Corporation, priority 2001, dated 2012)", "key": {"[1]": {"type": "physicochemical", "conditions": "0.02 weight percent per total basecoat solids", "description": "Referring to FIG. 75, there is illustrated in graphical format, the results of the same drug screening as described above with the solution applied to a cobalt-chromium, 18 mm stent. In this test, two sets of solution samples were utilized, one with sirolimus and polymer solution containing the antioxidant and one with sirolimus and polymer solution containing no antioxidant. The antioxidant utilized was 0.02 weight percent BHT per total basecoat solids. The test was utilized to determine the percent drug content change over a time period of 0 to 12 weeks under two conditions; namely, 40° C. with 75 percent relative humidity, and ambient conditions (25° C.)."}, "[2]": {"experiment": "Drug concentration in liquid formulations by liquid chromatography / HPLC", "type": "physicochemical", "description": "Table 8, shown below, summarizes the concentrations of the excipient, the co-solvents and the drug for four different liquid formulations in accordance with exemplary embodiments of the present invention.\nAs set forth above, a liquid formulation comprising 4 mg/ml of sirolimus may be achieved utilizing PEG 200 as the excipient and ethanol and water as the co-solvents. […] The high concentration of sirolimus is necessary to maintain an effective and high local concentration of sirolimus after delivery to the site. The liquid formulations are flowable at room temperature and are compatible with a number of delivery devices. Specifically, each of these formulations were successfully injected through an infusion catheter designated by the brand name CRESCENDO™ from Cordis Corporation, Miami, Fla., as described in more detail subsequently, and the EndoBionics Micro Syringe™ Infusion Catheter available from EndoBionics, Inc., San Leandros, Calif., as described in more detail above, in porcine studies.\nIn another exemplary embodiment, the liquid formulation of sirolimus comprises water and ethanol as co-solvents and Vitamin E TPGS as the excipient. The liquid formulation was created utilizing the following process. Two hundred milligrams of sirolimus and two grams of ethanol were added to a pre-weighed twenty milliliter scintillation vial. […]"}, "[3]": {"system": "human coronary artery smooth muscle cells", "experiment": "Anti-proliferative activity in non-synchronized cultured human coronary artery smooth muscle cells stimulated with two percent fetal bovine serum", "type": "cell-based", "conditions": "for effect on the anti-proliferative rapamycin dose response curve: added to cells treated with rapamycin", "description": "The multiple curves represent various concentrations of mycophenolic acid ranging from zero to one thousand nanomolar concentrations. […] This potentiation observed in cultured coronary artery smooth muscle cells preferably translates to an enhancement in anti-restenotic efficacy following vascular injury and a reduction in the required amount of either agent to achieve the desired anti-restenotic effect.\nFIG. 58 illustrates, in graphical format, the anti-proliferative activity of cladribine in non-synchronized cultured human coronary artery smooth muscle cells stimulated with two percent fetal bovine serum.\nThe multiple curves represent various concentrations of cladribine ranging from zero to nine hundred nanomolar concentrations. […] As illustrated, the percent inhibition increases substantially as the dose of cladribine increases."}, "[4]": {"system": "human coronary artery smooth muscle cell survival", "experiment": "MTS cytotoxicity assay", "type": "cell-based", "conditions": "6.6 to 30,000.00 nanomolar tested", "description": "Typically, a control is utilized to determine baseline toxicity."}, "[5]": {"system": "human coronary artery smooth muscle cells", "experiment": "Anti-proliferative activity in synchronized cultured human coronary artery smooth muscle cells stimulated with two percent fetal bovine serum", "type": "cell-based", "conditions": "for effect on the anti-proliferative rapamycin dose response curve: added to cells treated with rapamycin", "description": "(§1) The multiple curves represent various concentrations of topotecan ranging from zero to three hundred nanomolar concentrations.\n(§2) The multiple curves represent various concentrations of etoposide ranging from zero to eight hundred nanomolar concentrations.\nThe multiple curves represent various concentrations of Panzem® ranging from zero to 100 micromolar concentrations."}, "Cell viability assay": {"experiment": "Cell viability assay", "type": "cell-based", "description": "as §1, §2"}, "[6]": {"system": "human coronary artery smooth muscle cell proliferation", "experiment": "In vitro cell culture study of coronary artery smooth muscle cell proliferation (trichostatin A)", "type": "cell-based", "description": "FIG. 51 is a graph of the inhibition of coronary artery smooth muscle cells by trichostatin A in a cell culture study."}}, "data": [{"molecule": "Cc1cc(C(C)(C)C)c(O)c(C(C)(C)C)c1", "note": "[BHT, Butylated Hydroxytoluene]", "values": [{"measurement": "effect on drug degradation on coated stent", "setting": "[1]", "result": "lessens drug degradation at both 8 weeks and 12 weeks under ambient conditions"}]}, {"molecule": "CO[C@H]1C[C@@H]2CC[C@@H](C)[C@@](O)(O2)C(=O)C(=O)N2CCCC[C@H]2C(=O)O[C@H]([C@H](C)C[C@@H]2CC[C@@H](OC(=O)C(C)(CO)CO)[C@H](OC)C2)CC(=O)[C@H](C)/C=C(\\C)[C@@H](O)[C@@H](OC)C(=O)[C@H](C)C[C@H](C)/C=C/C=C/C=C/1C", "note": "[CCI-779]", "values": [{"measurement": "concentration in the final solution (HPLC assay)", "setting": "[2]; ethanol (less than two percent), Vitamin E TPGS and water", "result": 15000, "unit": "µg/mL"}]}, {"molecule": "Nc1nc(Cl)nc2c1ncn2[C@H]1C[C@H](O)[C@@H](CO)O1", "note": "[Cladribine, 2-chlorodeoxyadenosine]", "values": [{"measurement": "effect on the anti-proliferative rapamycin dose response curve", "setting": "[3]", "result": "potentiate the anti-proliferative activity of rapamycin"}, {"measurement": "inhibition of human coronary artery smooth muscle cell proliferation", "setting": "[3]; two percent fetal bovine serum", "result": "completely inhibits"}]}, {"molecule": "COc1cc2c(cc1O)CC[C@@H]1[C@@H]2CC[C@]2(C)[C@@H](O)CC[C@@H]12", "note": "[Panzem®, 2-methoxyestradiol]", "values": [{"measurement": "concentrations that do not reduce human coronary artery smooth muscle cell survival", "setting": "[4]", "result": "up to 30,000.00 nanomolar"}, {"measurement": "effect on the anti-proliferative rapamycin dose response curve", "setting": "[5]", "result": "potentiation of rapamycin by Panzem®"}, {"measurement": "anti-proliferative activity", "setting": "[5]; two percent fetal bovine serum, alone", "result": "extremely effective inhibitor of human coronary artery smooth muscle cell proliferation in vitro"}]}, {"molecule": "COc1cc([C@@H]2c3cc4c(cc3[C@@H](O[C@@H]3O[C@@H]5CO[C@@H](C)O[C@H]5[C@H](O)[C@H]3O)[C@H]3COC(=O)[C@H]23)OCO4)cc(OC)c1O", "note": "[etoposide]", "values": [{"measurement": "effect on the anti-proliferative rapamycin dose response curve", "setting": "[5]", "result": "potentiate the anti-proliferative activity of rapamycin"}, {"measurement": "cytotoxicity in cell viability assay", "setting": "Cell viability assay; concentrations up to ten micromolar", "result": "non-cytotoxic"}]}, {"molecule": "COc1c(C)c2c(c(O)c1C/C=C(\\C)CCC(=O)O)C(=O)OC2", "note": "[mycophenolic acid]", "values": [{"measurement": "effect on the anti-proliferative rapamycin dose response curve", "setting": "[3]", "result": "potentiates the anti-proliferative activity of rapamycin"}]}, {"molecule": "CO[C@H]1C[C@@H]2CC[C@@H](C)[C@@](O)(O2)C(=O)C(=O)N2CCCC[C@H]2C(=O)O[C@H]([C@H](C)C[C@@H]2CC[C@@H](O)[C@H](OC)C2)CC(=O)[C@H](C)/C=C(\\C)[C@@H](O)[C@@H](OC)C(=O)[C@H](C)C[C@H](C)/C=C/C=C/C=C/1C", "note": "[rapamycin]", "values": [{"measurement": "concentration relative to the solubility of sirolimus in water", "setting": "[2]; 4 mg/ml formulation with PEG 200, ethanol and water", "result": "about four hundred to about one thousand times higher"}]}, {"molecule": "CC[C@@]1(O)C(=O)OCc2c1cc1n(c2=O)Cc2cc3c(CN(C)C)c(O)ccc3nc2-1", "note": "[topotecan]", "values": [{"measurement": "effect on the anti-proliferative rapamycin dose response curve", "setting": "[5]", "result": "potentiate the anti-proliferative activity of rapamycin"}, {"measurement": "cytotoxicity in cell viability assay", "setting": "Cell viability assay; concentrations up to one micromolar", "result": "non-cytotoxic"}]}, {"molecule": "CC(/C=C/C(=O)NO)=C\\[C@@H](C)C(=O)c1ccc(N(C)C)cc1", "note": "[trichostatin A]", "values": [{"measurement": "inhibition of human coronary artery smooth muscle cell proliferation", "setting": "[6]", "result": "completely inhibit"}, {"measurement": "IC50", "setting": "[6]; human coronary artery smooth muscle cells, read-out: anti-proliferative IC50", "result": "~6", "unit": "nM"}]}]}
